ChEMBL document CHEMBL1150717, “5'-Hydroxyisoavrainvilleol, a new diphenylmethane derivative from the tropical green alga Avrainvillea nigricans” (J Nat Prod, 1987)
Values after ≈ are worked out from the molar mass of the structure shown. Active and inactive are the calls of the source. The rule behind the calls is not given here.

Tests used:
Escherichia coli [1] = test: Antimicrobial activity against Escherichia coli at 100 ug/disk by paper disk antibiotic sensitivity assay; assay type: functional, organism-based
Bacillus subtilis [2] = test: Antimicrobial activity against Bacillus subtilis at 50 ug/disk by paper disk antibiotic sensitivity assay; assay type: functional; conditions: read-out: IZ
Bacillus subtilis [3] = test: Antimicrobial activity against Bacillus subtilis at 100 ug/disk by paper disk antibiotic sensitivity assay; assay type: functional; conditions: read-out: IZ
Staphylococcus aureus [4] = test: Antimicrobial activity against Staphylococcus aureus at 100 ug/disk by paper disk antibiotic sensitivity assay; assay type: functional; conditions: read-out: IZ
Candida albicans [5] = test: Antimicrobial activity against Candida albicans at 100 ug/disk by paper disk antibiotic sensitivity assay; assay type: functional, organism-based
Serratia marcescens [6] = test: Antimicrobial activity against Serratia marcescens at 100 ug/disk by paper disk antibiotic sensitivity assay; assay type: functional
Pseudomonas aeruginosa [7] = test: Antimicrobial activity against Pseudomonas aeruginosa at 100 ug/disk by paper disk antibiotic sensitivity assay; assay type: functional
Bacillus subtilis [8] = test: Antimicrobial activity against Bacillus subtilis at 25 ug/disk by paper disk antibiotic sensitivity assay; assay type: functional; conditions: read-out: IZ
Carassius auratus = test: Toxicity in goldfish at 10 ug/ml; assay type: organism-based; conditions: in vivo
Staphylococcus aureus [9] = test: Antimicrobial activity against Staphylococcus aureus at 25 ug/disk by paper disk antibiotic sensitivity assay; assay type: functional; conditions: read-out: IZ
Serratia marcescens [10] = test: Antimicrobial activity against Serratia marcescens at 200 ug/disk by paper disk antibiotic sensitivity assay; assay type: functional; conditions: read-out: IZ
KB = test: Cytotoxicity against human KB cells; assay type: functional; conditions: read-out: ID50 (the source's name)
Staphylococcus aureus [11] = test: Antimicrobial activity against Staphylococcus aureus at 50 ug/disk by paper disk antibiotic sensitivity assay; assay type: functional; conditions: read-out: IZ
Pseudomonas aeruginosa [12] = test: Antimicrobial activity against Pseudomonas aeruginosa at 200 ug/disk by paper disk antibiotic sensitivity assay; assay type: functional; conditions: read-out: IZ
Escherichia coli [13] = test: Antimicrobial activity against Escherichia coli at 200 ug/disk by paper disk antibiotic sensitivity assay; assay type: functional; conditions: read-out: IZ
Candida albicans [14] = test: Antimicrobial activity against Candida albicans at 200 ug/disk by paper disk antibiotic sensitivity assay; assay type: functional; conditions: read-out: IZ

| SMILES | inhibition zone (IZ) (Escherichia coli [1]) | zone of inhibition at 50 µg/disc (Bacillus subtilis [2]) [mm] | zone of inhibition at 100 µg/disc (Bacillus subtilis [3]) [mm] | zone of inhibition at 100 µg/disc (Staphylococcus aureus [4]) [mm] | inhibition zone (IZ) (Candida albicans [5]) | inhibition zone (IZ) (Serratia marcescens [6]) | inhibition zone (IZ) (Pseudomonas aeruginosa [7]) | zone of inhibition at 25 µg/disc (Bacillus subtilis [8]) [mm] | Activity (Carassius auratus) | zone of inhibition at 25 µg/disc (Staphylococcus aureus [9]) [mm] | zone of inhibition at 200 µg/disc (Serratia marcescens [10]) [mm] | IC50 (KB) [µg/mL] | zone of inhibition at 50 µg/disc (Staphylococcus aureus [11]) [mm] | zone of inhibition at 200 µg/disc (Pseudomonas aeruginosa [12]) [mm] | zone of inhibition at 200 µg/disc (Escherichia coli [13]) [mm] | zone of inhibition at 100 µg/disc (Serratia marcescens [6]; read-out: IZ) [mm] | zone of inhibition at 100 µg/disc (Pseudomonas aeruginosa [7]; read-out: IZ) [mm] | zone of inhibition at 200 µg/disc (Candida albicans [14]) [mm] |
| --- | --- | --- | --- | --- | --- | --- | --- | --- | --- | --- | --- | --- | --- | --- | --- | --- | --- | --- |
| OCc1cc(O)c(O)c(Br)c1Cc1cc(O)c(O)c(Br)c1 | inactive | 10 | 11 | 10 | inactive | inactive | inactive | 9 | Non-toxic | – | – | – | – | – | – | – | – | – |
| OCc1cc(Br)c(O)c(O)c1Cc1ccc(O)c(Br)c1 [AVRAINVILLEOL] | inactive | 12 | 14 | 16 | inactive | – | inactive | 9 | Non-toxic | 10 | 9 | 10 (≈ 24.7 µM) | 12 | – | – | – | – | – |
| OCc1cc(O)c(O)c(Br)c1 | – | 10 | 12 | 13 | – | – | – | 8 | Non-toxic | 8 | 13 | 8.9 (≈ 40.6 µM) | 11 | 9 | 10 | 9 | 8 | 8 |
